Data as given in patent US9284283B2, “Macrocyclic compounds for modulating IL-17” (ENSEMBLE THERAPEUTICS CORPORATION, priority 2012, dated 2016).
Values joined by “and” are separate entries in the source; they are usually repeats but may differ in a detail not shown here. Equal values may be shown once.

Experiments:
[1] = biological target: T1, biotinylated human IL-17 (binding to IL17R/Fc) (Homo sapiens, UniProt Q16552); assay: IL-17 competition ELISA II (captured IL17R/Fc, biotinylated IL-17)
T1 construct: purchased R&D Systems 317-ILB (IL-17, biotinylated); 177-IR (IL17R/Fc)
T1 sequence (Q16552 20-155 limits assumed): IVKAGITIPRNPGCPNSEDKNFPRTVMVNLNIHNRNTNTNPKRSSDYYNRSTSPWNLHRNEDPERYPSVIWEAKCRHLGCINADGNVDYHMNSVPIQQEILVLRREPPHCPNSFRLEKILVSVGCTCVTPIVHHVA
Procedure, shortened: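 Anti-human IgG-coated plates captured IL17R/Fc (10 nM), then compound (5-fold dilutions from 1 μM) and biotinylated human IL-17 (20 nM stock) were added for 30 min at room temperature in PBST. Bound IL-17 detected by streptavidin-HRP/TMB at 450 nm. IC50 from 4-parameter logistic fit between no-competitor and blank controls.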

DNFB-treated BALB/c mice = assay: Murine model of delayed hypersensitivity (DNFB-induced ear edema); format: in vivo, mouse; conditions: for Reduction in edema (%): ear weight 24 h after DNFB challenge
Description: We used a murine model of fluorodinitrobenzene (DNFB)-induced ear edema to test the anti-inflammatory activity of both orally dosed and intraperitoneally dosed exemplary compounds of the invention. BALB/c mice (Harlan Sprague-Dawley, Inc., male, 6-8 weeks old) were topically treated on their shaved abdomen with 30 μL of 0.5% 1-fluoro-2,4-dinitrobenzene (DNFB) (4:1 acetone:olive oil) once on Day 0 and once on Day 1.
For oral dosing (“PO”), exemplary compounds of the invention were either suspended at 3 mg/mL in 20% Cremophor EL (Sigma) (20:80; Cremophor:water) or dissolved at 1 mg/mL or 3 mg/mL in D-α-tocopherol polyethylene glycol 1000 succinate (TPGS; Sigma)/PEG-400/water (20:60:20). For intraperitoneal dosing (“IP”), exemplary compounds of the invention were dissolved in DMSO at a concentration of 5 mg/mL. On day 7, the test compound was administered (PO at either 10 mg/kg or 30 mg/kg; IP at 1, 3, or 10 mg/kg) to DNFB-treated mice. Commercially available anti-mouse IL-17A (BioLegend) administered intraperitoneally at 5 mg/kg in PBS was used as a positive control. Thirty minutes later, 20 μL of 0.2% DNFB was applied to the right ear of animals and vehicle ([…]:olive oil) was applied to the left ear. One and four hours after DNFB challenge, a subset of mice was exsanguinated and plasma prepared from the blood. Twenty-four hours after challenge, the remaining mice were euthanized, and their ears were removed and weighed to determine the amount of edema. Plasma was assayed for interleukin-6, TNF-α, CXCL1, and interferon-γ concentrations using commercially-available assays.

[2] = system: murine collagen-induced arthritis; assay: Mouse collagen-induced arthritis (CIA) model; format: in vivo; conditions: for reduction of overall mean Clinical Arthritis Score: FIG. 11
Description: Exemplary compounds of the invention were evaluated in a murine CIA model. […] mice (10/group) were anaesthetized with Isoflurane, shaved at the base of the tail, and injected intradermally with 150 μL of Freund's Complete Adjuvant (Sigma) containing bovine type II collagen (Elastin Products, Owensville, Mo.) (2 mg/mL) at the base of the tail on day 0 and again on day 21. On study days 24-25, onset of arthritis occurred and mice were randomized into treatment groups. Randomization into each group was done after swelling was obviously established in at least one paw (score of 1), and attempts were made to ensure approximately equal mean scores of 0.25 across the groups at the time of enrollment. Once a day oral treatment with 10 or 30 mg/kg of test compound in 20% Cremophor EL was initiated after enrollment and continued once a day as indicated through arthritis day 10. Mice were terminated on day 11. Clinical scores were calculated for each of the paws (right front, left front, right rear, and left rear) on arthritis days 1-11 and the results were summarized as a reduction in clinical arthritis score for all paws over the time period of dosing.

## O=C1CNC(=O)[C@@H](Cc2ccc(NC(=O)[C@@H](NC(=O)Cc3ccccc3)C3CCCCC3)cc2)NC(=O)CC2(CCCC2)CC(=O)NCCCCCN1 [Compound 186]
[1]
  IC50: < 100 nM

## O=C1CNC(=O)[C@@H](Cc2ccc(NC(=O)[C@H](Cc3ccccc3Cl)NC(=O)Cc3ccccc3)cc2)NC(=O)CC2(CCCC2)CC(=O)NCCCCCN1 [Compound 159]
DNFB-treated BALB/c mice; i.p. 10 mg/kg, FIG. 1
  reduction in TNF-α, IFN-γ and edema as compared to a PBS control or DMSO control: statistically significant reduction
DNFB-treated BALB/c mice; i.p. at 1 mg/kg, 3 mg/kg, or 10 mg/kg, FIG. 2
  reduction in IL-6, IFN-γ and edema compared to a DMSO control: statistically significant reduction
DNFB-treated BALB/c mice; ip, 1 mg/kg
  Reduction in edema (%): 17%
DNFB-treated BALB/c mice; ip, 1 mg/kg, plasma
  IFNγ Reduction (%): 54.2%
  IL6 Reduction (%): 62.6%
DNFB-treated BALB/c mice; ip, 3 mg/kg
  Reduction in edema (%): 44%
DNFB-treated BALB/c mice; ip, 3 mg/kg, plasma
  IFNγ Reduction (%): 85.5%
  IL6 Reduction (%): 72.2%
DNFB-treated BALB/c mice; ip, 10 mg/kg
  Reduction in edema (%): 54.1% and 54%
DNFB-treated BALB/c mice; ip, 10 mg/kg, plasma
  IL6 Reduction (%): 78.6%
  TNFα Reduction (%): 21.7%
DNFB-treated BALB/c mice; orally dosed in TPGS/PEG400/Water vehicle, FIG. 5
  IL-6, IFN-γ, and edema, dose-dependent: effectively reduced
DNFB-treated BALB/c mice; po, 10 mg/kg
  Reduction in edema (%): 19.0%
DNFB-treated BALB/c mice; po, 10 mg/kg, plasma
  IFNγ Reduction (%): 24.2%
  IL6 Reduction (%): 29.8%
DNFB-treated BALB/c mice; po, 30 mg/kg
  Reduction in edema (%): 53.7%
DNFB-treated BALB/c mice; po, 30 mg/kg, plasma
  IFNγ Reduction (%): 64.5%
  IL6 Reduction (%): 58.3%
[2]; orally 10 mg/kg
  reduction of overall mean Clinical Arthritis Score: 6%
[2]; orally 30 mg/kg
  reduction of overall mean Clinical Arthritis Score: 11%
[2]; orally 10 and 30 mg/kg in 20% Cremophor EL, FIG. 10
  reduction in mean Clinical Arthritis Score on days 27-30 as compared to vehicle controls: superior reduction

## O=C1CNC(=O)[C@@H](Cc2ccc(NC(=O)[C@H](Cc3ccccc3Cl)NC(=O)c3cccnc3)cc2)NC(=O)CC2(CCCC2)CC(=O)NCCCCCN1 [Compound 194]
[1]
  IC50: < 100 nM

## O=C1CNC(=O)[C@@H](Cc2ccc(NC(=O)[C@H](Cc3ccccc3Cl)NC(=O)Cc3ccccn3)cc2)NC(=O)CC2(CCCC2)CC(=O)NCCCCCN1 [Compound 226]
[1]
  IC50: < 100 nM
